Article PMC6222558, “Synthesis and Evolution of Berberine Derivatives as a New Class of Antiviral Agents against Enterovirus 71 through the MEK/ERK Pathway and Autophagy” (Molecules : A Journal of Synthetic Chemistry and Natural …, 2018)
Where a name gives a salt, the structure may show the parent alone. Read-outs that look alike come from different tables or passages of the source. Blank lines part the entries; values can stand above or below the compound they belong to.

Legend:
Vero cells = test: Cytotoxicity assay (CCK) in Vero cells; format: cell-based, African green monkey; settings: for TC50 (median toxic concentration): African green monkey, 48 h
Experimental: (§1) Vero cells were purchased from the American Type Culture Collection (ATCC, […], MD, USA), and were cultured in Minimum Essential Medium (MEM) supplemented with 10% fetal bovine serum (FBS) (GIBCO, Grand Island, NY, USA) and antibiotics (100 U/mL penicillin and […] streptomycin) at 37 °C in a 5% CO2 incubator. EV71 strain SHZH98 isolated from the throat swab sample of an HFMD case occurring in 1998 in China was kindly provided by Dr. Qi Jin (Institute of Pathogen Biology, Chinese Academy of Medical Science and Peking Union Medical School, Beijing, China), and JS-52 strain was a kind gift from Dr. Xiangzhong Ye (Beijing Wantai Biological Pharmacy Enterprise Co., Ltd., Beijing, China). The EV71 BrCr and H strains were purchased from the ATCC. All of EV71 strains were passaged in Vero cells.
Cytotoxicity of all target compounds in Vero cells was analyzed by CCK (TransGen Biotech, Beijing, China) assay. In brief, cells in exponential phase (3 × 10^4 cells/well) were seeded into 96-well culture plates and incubated overnight. Then, the medium was removed and different concentrations of all target compounds were applied in duple. After 48 h incubation, the cytotoxicity of all target compounds was determined by CCK assay. The signals were read at 450 nm on Enspire (Perkin Elmer, Waltham, MA, USA). The TC50 was defined as the concentration that inhibits 50% cellular growth in comparison with the controls. It is calculated by the Reed and Muench method.

[1] = tested on: EV71 JS-52 strain (genotype C4); test: CPE inhibition assay for anti-EV71, JS-52 strain; format: cell-based, enterovirus 71 (EV71); settings: Enterovirus A, read-out: JS-52 Strain IC50
Experimental: (§2) Thus, all newly synthesized BBR analogues were screened for their anti-EV71 potencies in African green monkey kidney (Vero) cells taking BBR as the positive control. EV71 strains used in the present study include different genotype strains, such as H strain (VR-1432, genotype C2), BrCr strain (VR-1775, genotype A), and JS-52 and SHZH98 (genotype C4). The potency against EV71 strains above mentioned of each tested compound was evaluated by the combination of its IC50 and selectivity index (SI) value as the important therapeutic indication.
as §1
(§3) The anti-EV71 activities of all tested compounds were detected by the virus-induced CPE assay. Briefly, cells (3 × 10^4 cells/well) were plated into 96-well culture plates and incubated for 16 h. Then, remove the medium and infected cells with EV71 of 100 × TCID50 (50% tissue culture infective doses) in serum-free medium for 1 h at 37 °C. After that, the unbound viruses were removed and various concentrations of tested compounds were supplemented for incubation of another 72 h. […] TC50 defined as the concentration that leads to the 50% of CPE which determined by the same method in 72 h. In addition, the cells were stained the cells were colored with 0.5% crystal violet in 20% ethanol for 15 min at room temperature and the cells were imaged after rinsed with PBS.

[2] = tested on: EV71 BrCr strain (VR-1775, genotype A); test: CPE inhibition assay for anti-EV71, BrCr strain; format: cell-based, enterovirus 71 (EV71); settings: Enterovirus A, read-out: BrCr Strain IC50
Experimental: as §2, §1, §3

[3] = tested on: EV71 H strain (VR-1432, genotype C2); test: CPE inhibition assay for anti-EV71, H strain; format: cell-based, enterovirus 71 (EV71); settings: for IC50: Enterovirus A, read-out: H Strain IC50; for anti-EV71 activity against H strain, in words: compared with BBR
Experimental: as §2, §1, §3

[4] = tested on: EV71 SHZH98 strain (genotype C4); test: CPE inhibition assay for anti-EV71, SHZH98 strain; format: cell-based, enterovirus 71 (EV71); settings: Enterovirus A, read-out: SHZH98 Strain IC50
Experimental: as §2, §1, §3

[5] = EV71, Vero cells, CPE, calculated on the organic part, n = 3

SMILES: COc1ccc2cc3[n+](cc2c1OCC(=O)OCC(C)C)CCc1cc2c(cc1-3)OCO2 (as salt: chloride) [2b, 2,3-Methylenedioxy-9-isobutyloxyformylmethylenoxy-10-methoxy protoberberine chloride]
melting point: 232 to 234 °C

SMILES: COc1ccc2cc3[n+](cc2c1OCC(=O)C(C)(C)C)CCc1cc2c(cc1-3)OCO2 (as salt: chloride) [2c, 2,3-Methylenedioxy-9-pivalylmethylenoxy-10-methoxy protoberberine chloride]
melting point: 242 to 244 °C

SMILES: COc1ccc2cc3[n+](cc2c1OCC(=O)c1ccc(C)cc1)CCc1cc2c(cc1-3)OCO2 (as salt: chloride) [2e, 2,3-Methylenedioxy-9-p-tolylformylmethylenoxy-10-methoxy protoberberine chloride]
melting point: 219 to 221 °C

SMILES: COc1cccc(C(=O)COc2c(OC)ccc3cc4[n+](cc23)CCc2cc3c(cc2-4)OCO3)c1 (as salt: chloride) [2f, 2,3-Methylenedioxy-9-m-methoxyphenylformylmethylenoxy-10-methoxy protoberberine chloride]
melting point: 214 to 216 °C

SMILES: COc1ccc2cc3[n+](cc2c1OCC(=O)c1ccc(C(F)(F)F)cc1)CCc1cc2c(cc1-3)OCO2 (as salt: chloride) [2g, 2,3-Methylenedioxy-9-p-trifloromethylphenylformylmethylenoxy-10-methoxy protoberberine chloride]
melting point: 238 to 240 °C

SMILES: COc1ccc2cc3[n+](cc2c1OC(=O)OCc1ccccc1)CCc1cc2c(cc1-3)OCO2 (as salt: chloride) [2h, 2,3-Methylenedioxy-9-benzyloxyformyloxy-10-methoxy protoberberine chloride]
melting point: 195 to 197 °C

SMILES: CCOC(=O)Oc1c(OC)ccc2cc3[n+](cc12)CCc1cc2c(cc1-3)OCO2 (as salt: chloride) [2i, 2,3-Methylenedioxy-9-ethyloxyformyloxy-10-methoxy protoberberine chloride]
melting point: 218 to 220 °C

SMILES: CCOC(=O)COc1c(OC)ccc2cc3[n+](cc12)CCc1cc(OC)c(OC)cc1-3 (as salt: chloride) [4a, 2,3,10-Trimethoxy-9-ethyloxyformylmethylenoxy protoberberine chloride]
melting point: 204 to 206 °C

SMILES: COc1cc2c(cc1OC)-c1cc3ccc(OC)c(OCC(=O)C(C)(C)C)c3c[n+]1CC2 (as salt: chloride) [4b, 2,3,10-Trimethoxy-9-pivalylmethylenoxy protoberberine chloride]
melting point: 227 to 229 °C

SMILES: COc1cc2c(cc1OC)-c1cc3ccc(OC)c(OCC(=O)OCc4ccccc4)c3c[n+]1CC2 (as salt: chloride) [4c, 2,3,10-Trimethoxy-9-benzyloxyformylmethylenoxy protoberberine chloride]
melting point: 196 to 198 °C

SMILES: COc1cc2c(cc1OC)-c1cc3ccc(OC)c(OCC(=O)c4ccc(C)cc4)c3c[n+]1CC2 (as salt: chloride) [4d, 2,3,10-Trimethoxy-9-p-tolylformylmethylenoxy protoberberine chloride]
melting point: 228 to 230 °C

SMILES: COc1cc2c(cc1O)CC[n+]1cc3c(OC)c(OC)ccc3cc1-2 [JTH, jatrorrhizine, reference compound]
TC50 (median toxic concentration) (Vero cells): 255 µM
IC50 ([1]; EV71, Vero): 147 µM
IC50 ([2]; EV71, Vero): > 147 µM
IC50 ([3]; EV71, Vero): > 147 µM
anti-EV71 activity against H strain, in words ([3]; Vero cells): decreased activity
IC50 ([4]; EV71, Vero): 147 µM

More lines, main results first:

melting point: 200 to 202 °C
SMILES: COc1cccc(C(=O)COc2c(OC)ccc3cc4[n+](cc23)CCc2cc(OC)c(OC)cc2-4)c1 (as salt: chloride) [4e, 2,3,10-Trimethoxy-9-m-methoxyphenylformylmethylenoxy protoberberine chloride]

melting point: 240 to 242 °C
SMILES: COc1cc2c(cc1OC)-c1cc3ccc(OC)c(OCC(=O)c4ccc(C(F)(F)F)cc4)c3c[n+]1CC2 (as salt: chloride) [4f, 2,3,10-Trimethoxy-9-p-trifloromethylphenylformylmethylenoxy protoberberine chloride]

melting point: 98 to 100 °C
SMILES: COc1cc2c(cc1OC)-c1cc3ccc(OC)c(OC(=O)OCc4ccccc4)c3c[n+]1CC2 (as salt: chloride) [4g, 2,3,10-Trimethoxy-9-benzyloxyformyloxy protoberberine chloride]

melting point: 234 to 236 °C
SMILES: CCOC(=O)COc1cc2c(cc1OC)-c1cc3ccc(OC)c(OC)c3c[n+]1CC2 (as salt: chloride) [5a, 2,9,10-Trimethoxy-3-ethyloxyformylmethylenoxy protoberberine chloride]

melting point: 223 to 225 °C
SMILES: COc1cc2c(cc1OCC(=O)C(C)(C)C)CC[n+]1cc3c(OC)c(OC)ccc3cc1-2 (as salt: chloride) [5b, 2,9,10-Trimethoxy-3-pivalylmethylenoxy protoberberine chloride]

melting point: 217 to 219 °C
SMILES: COc1cc2c(cc1OCC(=O)OCc1ccccc1)CC[n+]1cc3c(OC)c(OC)ccc3cc1-2 (as salt: chloride) [5c, 2,9,10-Trimethoxy-3-benzyloxyformylmethylenoxy protoberberine chloride]

melting point: 218 to 220 °C
SMILES: COc1cc2c(cc1OCC(=O)c1ccc(C)cc1)CC[n+]1cc3c(OC)c(OC)ccc3cc1-2 (as salt: chloride) [5d, 2,9,10-Trimethoxy-3-p-methylphenylformylmethylenoxy protoberberine chloride]

IC50 [1, 5]: 8.69 µM
IC50 [2, 5]: 9.2 µM
IC50 [3, 5]: 10.4 µM
IC50 [4, 5]: 9.13 µM
SMILES: COc1cccc(C(=O)COc2cc3c(cc2OC)-c2cc4ccc(OC)c(OC)c4c[n+]2CC3)c1 [5e, 2,9,10-Trimethoxy-3-m-methoxyphenylformylmethylenoxy protoberberine chloride]
cytotoxicity, in words (Vero cells): high cytotoxicity
TC50 (median toxic concentration) (Vero cells): 27.6 µM
anti-EV71 activity against H strain, in words ([3]; Vero cells): ideal activities compared with BBR

IC50 [1, 5]: 27 µM
IC50 [2, 5]: 25.4 µM
IC50 [3, 5]: 40.4 µM
IC50 [4, 5]: 68.4 µM
SMILES: COc1cc2c(cc1OCC(=O)c1ccc(C(F)(F)F)cc1)CC[n+]1cc3c(OC)c(OC)ccc3cc1-2 [5f, 2,9,10-Trimethoxy-3-p-trifloromethylphenylformylmethylenoxy protober berine chloride]
TC50 (median toxic concentration) (Vero cells): 143 µM
anti-EV71 activity against H strain, in words ([3]; Vero cells): partially or completely lost

IC50 [1, 5]: 51.3 µM
IC50 [2, 5]: 82.8 µM
IC50 [3, 5]: 143 µM
IC50 [4, 5]: 86.7 µM
SMILES: COc1cc2c(cc1OC(=O)OCc1ccccc1)CC[n+]1cc3c(OC)c(OC)ccc3cc1-2 [5g, 2,9,10-Trimethoxy-3-benzyloxyformyloxy protoberberine chloride]
TC50 (median toxic concentration) (Vero cells): 265 µM
anti-EV71 activity against H strain, in words ([3]; Vero cells): partially or completely lost

IC50 [1, 5]: 28.5 µM
IC50 [2, 5]: 35.4 µM
IC50 [3, 5]: 37 µM
IC50 [4, 5]: 32.6 µM
SMILES: COc1ccc2cc3[n+](cc2c1O)CCc1cc2c(cc1-3)OCO2 [compound 1]
TC50 (median toxic concentration) (Vero cells): 85.5 µM
anti-EV71 activity against H strain, in words ([3]; Vero cells): decreased activity

IC50 [1, 5]: 102 µM
IC50 [2, 5]: 135 µM
IC50 [3, 5]: 121 µM
IC50 [4, 5]: 132 µM
SMILES: COc1cc2c(cc1OC)-c1cc3ccc(OC)c(O)c3c[n+]1CC2 [compound 3]
TC50 (median toxic concentration) (Vero cells): 254 µM
anti-EV71 activity against H strain, in words ([3]; Vero cells): decreased activity
